In patent publication US8846601B2, “Melanocortin receptor-specific peptides” (Palatin Technologies, Inc., priority 2009, dated 2014):
Peptide text beside a SMILES is read from it.

Molecular target: hMC4-R (Homo sapiens (Human), UniProt P32245)
Assay: Competitive inhibition binding assay using [I125]-NDP-α-MSH, hMC4-R membranes
Settings: averaged; [I125]-NDP-α-MSH (values not marked *); read-out: MC4-R Ki
Experimental: A competitive inhibition binding assay is performed using membrane homogenates prepared from HEK-293 cells that express recombinant hMC4-R, hMC3-R, or hMC5-R, and from B-16 mouse melanoma cells (containing endogenous MC1-R). In some instances, HEK-293 cells that express recombinant hMC1-R were employed. In the examples that follow, all MC3-R, MC4-R and MC5-R values are for human recombinant receptors. […] Membrane homogenates were incubated with 0.2 nM (for hMC4-R) 0.4 nM (for MC3-R and MC5-R) or 0.1 nM (for mouse B16 MC1-R or hMC1-R) [I^125]-NDP-α-MSH (Perkin Elmer) and increasing concentrations of test peptides of the present invention in buffer containing 25 mM HEPES buffer (pH 7.5) with 100 mM NaCl, 2 mM CaCl2, 2 mM MgCl2, 0.3 mM 1,10-phenanthroline, and 0.2% bovine serum albumin. After incubation for 60 minutes at 37° C., the assay mixture was filtered and the membranes washed three times with ice-cold buffer. Filters were dried and counted in a gamma counter for bound radioactivity. […] Maximal specific binding (100%) was defined as the difference in radioactivity (cpm) bound to cell membranes in the absence and presence of 1 μM NDP-α-MSH. […] Each assay was conducted in triplicate and the actual mean values are described, with results less than 0% reported as 0%. Ki values for test peptides of the present invention were determined using Graph-Pad Prism® curve-fitting software.

Sequence of hMC4-R (P32245 whole entry): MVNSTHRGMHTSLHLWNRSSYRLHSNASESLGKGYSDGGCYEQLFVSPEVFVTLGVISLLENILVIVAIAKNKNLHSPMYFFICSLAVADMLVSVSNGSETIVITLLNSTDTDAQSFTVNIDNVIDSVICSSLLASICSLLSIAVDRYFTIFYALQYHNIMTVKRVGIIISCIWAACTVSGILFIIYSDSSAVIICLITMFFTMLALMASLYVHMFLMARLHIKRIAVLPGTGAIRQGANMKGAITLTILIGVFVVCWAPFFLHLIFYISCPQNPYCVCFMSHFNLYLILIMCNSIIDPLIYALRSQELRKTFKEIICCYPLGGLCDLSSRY

Row | SMILES | Ki [nM]
1 | CC(=O)N[C@@H](CCCNC(=N)N)C(=O)N[C@H]1CCCC(=O)NCC[C@@H](C(=O)O)NC(=O)[C@H](Cc2c[nH]c3ccccc23)NC(=O)[C@H](CCCNC(=N)N)NC(=O)[C@@H](Cc2ccccc2)NC(=O)[C@H](CCN)NC1=O [compound 144, Ac-Arg-cyclo(hGlu-Dab- D-Phe-Arg-Trp-Dab)- OH] | 45
2 | CC(=O)N[C@@H](CCCNC(=N)N)C(=O)N[C@H]1CCCC(=O)NCC[C@@H](C(N)=O)NC(=O)[C@H](Cc2c[nH]c3ccccc23)NC(=O)[C@H](CCCNC(=N)N)NC(=O)[C@@H](Cc2ccccc2)NC(=O)[C@H](CCS(C)(=O)=O)NC1=O [compound 145, Ac-Arg-cyclo(hGlu- Met(O2)-D-Phe-Arg- Trp-Dab)-NH2] (HELM PEPTIDE1{[ac].R.[O=C([C@H](CCCC(=O)[*:3])N[*:1])[*:2]].[CS(=O)(=O)CC[C@H](N[*:1])C(=O)[*:2]].[dF].R.W.[Dab].[am]}$PEPTIDE1,PEPTIDE1,3:R3-8:R3$$$V2.0) | 4
3 | CCCCC(=O)N[C@H]1CCC(=O)NCC[C@@H](C(=O)N[C@@H](Cc2c[nH]c3ccccc23)C(N)=O)NC(=O)[C@H](CCCNC(=N)N)NC(=O)[C@@H](Cc2ccccc2)NC(=O)[C@H](Cc2c[nH]cn2)NC1=O [compound 153, n-C4H9—CO-cyclo(Glu- His-D-Phe-Arg-Dab)- Trp-NH2] | 365
4 | CC(=O)N[C@@H](CCCN)C(=O)N[C@H]1CCCNC(=O)CC[C@@H](C(N)=O)NC(=O)[C@H](Cc2c[nH]c3ccccc23)NC(=O)[C@H](CCCNC(=N)N)NC(=O)[C@@H](Cc2ccccc2)NC(=O)[C@H](CC(N)=O)NC1=O [compound 158, Ac-Orn-cyclo(Orn-Asn- D-Phe-Arg-Trp-Glu)- NH2] (HELM PEPTIDE1{[ac].[Orn].[Orn].N.[dF].R.W.E.[am]}$PEPTIDE1,PEPTIDE1,3:R3-8:R3$$$V2.0) | 50

Continued, values first:

Row | Ki [nM] | SMILES
5 | 9 | CC(=O)N[C@@H](CCCNC(N)=O)C(=O)N[C@H]1CC(=O)NCCCC[C@@H](C(N)=O)NC(=O)[C@H](Cc2c[nH]c3ccccc23)NC(=O)[C@H](CCCNC(=N)N)NC(=O)[C@@H](Cc2ccccc2)NC(=O)[C@H](CCN)NC1=O [compound 141, Ac-Cit-cyclo(Asp-Dab- D-Phe-Arg-Trp-Lys)- NH2]
6 | 15 | CC(=O)N[C@@H](CCC(N)=O)C(=O)N[C@H]1CC(=O)NCCCC[C@@H](C(N)=O)NC(=O)[C@H](Cc2c[nH]c3ccccc23)NC(=O)[C@H](CCCNC(=N)N)NC(=O)[C@@H](Cc2ccccc2)NC(=O)[C@H](CCN)NC1=O [compound 142, Ac-Gln-cyclo(Asp-Dab- D-Phe-Arg-Trp-Lys)- NH2] (HELM PEPTIDE1{[ac].Q.D.[Dab].[dF].R.W.K.[am]}$PEPTIDE1,PEPTIDE1,3:R3-8:R3$$$V2.0)
7 | 20 | CC(=O)N[C@@H](CCCNC(=N)N)C(=O)N[C@H]1CCCC(=O)NCC[C@@H](C(N)=O)NC(=O)[C@H](Cc2c[nH]c3ccccc23)NC(=O)[C@H](CCCNC(=N)N)NC(=O)[C@@H](Cc2ccccc2)NC(=O)[C@H](CCC(N)=O)NC1=O [compound 147, Ac-Arg-cyclo(hGlu-Gln- D-Phe-Arg-Trp-Dab)- NH2]
8 | 4 | CC(=O)N[C@@H](CCCNC(=N)N)C(=O)N[C@H]1CCCCNC(=O)C[C@@H](C(N)=O)NC(=O)[C@H](Cc2c[nH]c3ccccc23)NC(=O)[C@H](CCCNC(=N)N)NC(=O)[C@@H](Cc2ccccc2)NC(=O)[C@H](CCC(N)=O)NC1=O [compound 151, Ac-Arg-cyclo(Lys-Gln- D-Phe-Arg-Trp-Asp)- NH2] (HELM PEPTIDE1{[ac].R.K.Q.[dF].R.W.D.[am]}$PEPTIDE1,PEPTIDE1,3:R3-8:R3$$$V2.0)
